Activity calls are given as the source filed them. The rule behind the calls is not given here.
Key:
H9c2 [1] = test: Cardioprotective activity against CoCl2-induced cellular hypoxia injury in rat H9c2 cells assessed as increase in cell viability at 30 uM incubated for 24 hrs by CCK-8 assay; assay type: functional, cell-based
H9c2 [2] = test: Cardioprotective activity against CoCl2-induced cellular hypoxia injury in rat H9c2 cells assessed as cell viability at 0.625 uM incubated for 24 hrs by CCK-8 assay (reference value: 51.80 +/- 2.58 %); assay type: functional; conditions: read-out: Activity
H9c2 [3] = test: Cardioprotective activity against CoCl2-induced cellular hypoxia injury in rat H9c2 cells assessed as cell viability at 1.25 uM incubated for 24 hrs by CCK-8 assay (reference value: 51.80 +/- 2.58 %); assay type: functional; conditions: read-out: Activity
H9c2 [4] = test: Cardioprotective activity against CoCl2-induced cellular hypoxia injury in rat H9c2 cells assessed as cell viability at 2.5 uM incubated for 24 hrs by CCK-8 assay (reference value: 51.80 +/- 2.58 %); assay type: functional; conditions: read-out: Activity
H9c2 [5] = test: Cardioprotective activity against CoCl2-induced cellular hypoxia injury in rat H9c2 cells assessed as cell viability at 5 uM incubated for 24 hrs by CCK-8 assay (reference value: 51.80 +/- 2.58 %); assay type: functional; conditions: read-out: Activity
H9c2 [6] = test: Cardioprotective activity against CoCl2-induced cellular hypoxia injury in rat H9c2 cells assessed as cell viability at 10 uM incubated for 24 hrs by CCK-8 assay (reference value: 51.80 +/- 2.58 %); assay type: functional; conditions: read-out: Activity
[7] = Induction of H2S release in PBS at pH 7.4 at 100 uM measured upto 60 mins by methylene blue method; assay type: functional
[8] = Induction of H2S release in PBS at pH 7.4 measured upto 60 mins by methylene blue method; assay type: functional
H9c2 [9] = test: Induction of H2S release in rat H9c2 cells incubated for 24 hrs by AzMC probe based analysis; assay type: functional, cell-based; conditions: dose 1.25-10 µM
Rattus norvegicus [10] = test: Cardioprotective activity in myocardial ischemia Sprague-Dawley rat model assessed as decrease in ISO-induced ST segment at 50 mg/kg, IG treated for 7 days consecutively followed by ISO administration daily for 2 days consecutively by ECG analysis; assay type: functional, organism-based; conditions: time 9.0 day
H9c2 [11] = test: Cardioprotective activity against CoCl2-induced cellular hypoxia injury in rat H9c2 cells assessed as mitochondrial membrane potential at 50 uM incubated for 24 hrs by JC-1 staining based analysis (reference value: 48.08 %); assay type: functional
H9c2 [12] = test: Cardioprotective activity against CoCl2-induced cellular hypoxia injury in rat H9c2 cells assessed as reduction in apoptosis at 50 uM incubated for 24 hrs by flow cytometry; assay type: functional, cell-based
H9c2 [13] = test: Cardioprotective activity against CoCl2-induced cellular hypoxia injury in rat H9c2 cells assessed as reduction in necrosis at 50 uM incubated for 24 hrs by flow cytometry; assay type: functional, cell-based
[14] = biological target: T1, NAD-dependent protein deacetylase sirtuin-1 (Homo sapiens) (UniProt Q96EB6); test: Activation of SIRT1 (unknown origin) using RHKK-ac-AMC as substrate incubated for 2 hrs by FDL assay relative to control; conditions: filed as activator
T1 sequence (whole entry): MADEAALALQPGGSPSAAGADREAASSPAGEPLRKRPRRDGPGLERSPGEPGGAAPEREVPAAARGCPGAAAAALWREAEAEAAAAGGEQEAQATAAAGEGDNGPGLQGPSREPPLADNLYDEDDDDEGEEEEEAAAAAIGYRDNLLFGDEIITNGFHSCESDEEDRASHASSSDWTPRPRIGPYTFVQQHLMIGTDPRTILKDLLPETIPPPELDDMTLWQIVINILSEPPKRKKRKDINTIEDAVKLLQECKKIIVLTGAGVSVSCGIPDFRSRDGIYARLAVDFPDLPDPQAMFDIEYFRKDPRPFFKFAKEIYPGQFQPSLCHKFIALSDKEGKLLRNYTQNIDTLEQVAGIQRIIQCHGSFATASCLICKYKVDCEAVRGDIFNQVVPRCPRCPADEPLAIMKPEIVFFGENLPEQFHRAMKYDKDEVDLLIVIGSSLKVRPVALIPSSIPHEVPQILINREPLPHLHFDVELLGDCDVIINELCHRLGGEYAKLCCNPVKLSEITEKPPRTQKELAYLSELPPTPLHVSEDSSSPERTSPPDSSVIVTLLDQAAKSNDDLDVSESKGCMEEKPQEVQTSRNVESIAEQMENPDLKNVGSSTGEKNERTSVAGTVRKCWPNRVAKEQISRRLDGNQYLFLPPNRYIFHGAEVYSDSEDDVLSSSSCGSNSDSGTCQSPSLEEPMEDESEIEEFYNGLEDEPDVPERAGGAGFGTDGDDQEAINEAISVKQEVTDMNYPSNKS

[15] = biological target: T2, NAD-dependent protein deacetylase sirtuin-1 (Rattus norvegicus) (UniProt A0A0G2JZ79); test: Activation of SIRT1 in CoCl2-induced cellular hypoxia injury in rat H9c2 cells at 50 uM incubated for 24 hrs by Western blot analysis; assay type: cell-based; conditions: filed as activator
T2 sequence (whole entry): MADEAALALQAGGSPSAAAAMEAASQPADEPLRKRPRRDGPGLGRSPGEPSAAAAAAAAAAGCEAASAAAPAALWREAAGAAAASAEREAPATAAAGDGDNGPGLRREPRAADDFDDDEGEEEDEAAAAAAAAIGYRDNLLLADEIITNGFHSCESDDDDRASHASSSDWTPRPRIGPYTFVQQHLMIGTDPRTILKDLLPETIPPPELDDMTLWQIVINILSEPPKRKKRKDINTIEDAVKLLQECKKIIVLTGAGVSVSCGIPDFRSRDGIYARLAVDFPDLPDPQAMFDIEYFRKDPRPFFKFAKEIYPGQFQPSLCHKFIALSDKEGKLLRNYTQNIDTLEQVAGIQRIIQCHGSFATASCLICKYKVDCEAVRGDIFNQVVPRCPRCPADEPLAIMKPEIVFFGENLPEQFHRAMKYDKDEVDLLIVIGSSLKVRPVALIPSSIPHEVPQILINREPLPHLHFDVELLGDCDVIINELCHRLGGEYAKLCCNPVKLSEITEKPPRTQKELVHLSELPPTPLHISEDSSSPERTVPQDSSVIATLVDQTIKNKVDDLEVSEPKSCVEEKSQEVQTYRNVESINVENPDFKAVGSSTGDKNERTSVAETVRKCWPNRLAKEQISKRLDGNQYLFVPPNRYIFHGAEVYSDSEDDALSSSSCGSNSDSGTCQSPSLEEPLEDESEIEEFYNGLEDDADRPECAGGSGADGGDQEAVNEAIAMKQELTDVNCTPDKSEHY

Rattus norvegicus [16] = test: In vivo activation of SIRT1 in myocardial tissue of myocardial ischemia Sprague-Dawley rat model at 50 mg/kg, IG treated for 7 days consecutively followed by ISO administration daily for 2 days consecutively by Western blot analysis; assay type: functional, organism-based; conditions: time 9.0 day
H9c2 [17] = test: Cardioprotective activity against CoCl2-induced cellular hypoxia injury in rat H9c2 cells assessed as increase in PGC1-alpha level at 50 uM incubated for 24 hrs by Western blot analysis; assay type: functional, cell-based
Rattus norvegicus [18] = test: Cardioprotective activity against myocardial ischemia Sprague-Dawley rat model assessed as increase in PGC1-alpha level in myocardial tissue at 50 mg/kg, IG treated for 7 days consecutively followed by ISO administration daily for 2 days consecutively by Western blot analysis; assay type: functional, organism-based; conditions: time 9.0 day
H9c2 [19] = test: Inhibition of apoptosis in CoCl2-induced cellular hypoxia injury in rat H9c2 cells assessed as increase in Bcl-2 level at 5 to 10 uM incubated for 24 hrs by Western blot analysis; assay type: functional, cell-based; conditions: dose 5-10 µM
H9c2 [20] = test: Inhibition of apoptosis in CoCl2-induced cellular hypoxia injury in rat H9c2 cells assessed as increase in caspase-3 level at 5 to 10 uM incubated for 24 hrs by Western blot analysis; assay type: functional, cell-based; conditions: dose 5-10 µM
H9c2 [21] = test: Inhibition of apoptosis in CoCl2-induced cellular hypoxia injury in rat H9c2 cells assessed as decrease in Bax level at 5 to 10 uM incubated for 24 hrs by Western blot analysis; assay type: functional, cell-based; conditions: dose 5-10 µM

Compound	Activity (H9c2 [1])	viability at 0.625 µM (H9c2 [2])	viability at 1.25 µM (H9c2 [3])	viability at 2.5 µM (H9c2 [4])	viability at 5 µM (H9c2 [5])	viability at 10 µM (H9c2 [6])	Activity [7]	Activity [8]	Activity (H9c2 [9])	also measured
CC(C)(O)[C@@H]1CC[C@@](C)([C@H]2CC[C@]3(C)[C@@H]2[C@H](O)C[C@@H]2[C@@]4(C)CC[C@H](OC(=O)CCC(=O)Oc5ccc(-c6nc(=O)ss6)cc5)C(C)(C)[C@@H]4[C@@H](O)C[C@]23C)O1	inactive	70.1%	77.4%	83.7%	89.1%	94.2%	Active	10.5 µM	Dose-dependent-effect	–
Oc1ccc(/C=C/c2cc(O)cc(O)c2)cc1 [RESVERATROL]	–	58.3%	58.8%	64.1%	68.5%	76.1%	–	–	–	Activity (Rattus norvegicus [10]): Active; Activity (H9c2 [11]): 73.27%; Activity (H9c2 [12]): Active; Activity (H9c2 [13]): Active; Activity [14]: 158%; Activity [15]: Active; Activity (Rattus norvegicus [16]): Active; Activity (H9c2 [17]): Active; Activity (Rattus norvegicus [18]): Active; inhibition (H9c2 [19]): Active; inhibition (H9c2 [20]): Active; inhibition (H9c2 [21]): Active
CC(C)(O)[C@@H]1CC[C@@](C)([C@H]2CC[C@]3(C)[C@@H]2[C@H](O)C[C@@H]2[C@@]4(C)CC[C@H](OC(=O)CCC(=O)Oc5ccc(-c6nc(=O)ss6)cc5)C(C)(C)[C@@H]4CC[C@]23C)O1	inactive	73.5%	81.6%	87.7%	91%	92.2%	Active	10 µM	Dose-dependent-effect	–
CC(C)(O)[C@H]1CC[C@@](C)([C@H]2CC[C@]3(C)[C@@H]2[C@H](O)C[C@@H]2[C@@]4(C)CC[C@H](OC(=O)CCC(=O)Oc5ccc(-c6cc(=S)ss6)cc5)C(C)(C)[C@@H]4[C@@H](O)C[C@]23C)O1	inactive	67.3%	66.2%	68.4%	68.1%	68.3%	–	–	–	–
C=CCSSCCC(=O)O[C@H]1CC[C@]2(C)[C@H]3C[C@@H](O)[C@@H]4[C@@H]([C@]5(C)CC[C@@H](C(C)(C)O)O5)CC[C@@]4(C)[C@]3(C)C[C@H](O)[C@H]2C1(C)C	inactive	74.7%	74.2%	79.1%	89.1%	95.3%	Active	17.4 µM	Dose-dependent-effect	–
CC(C)(O)[C@@H]1CC[C@@](C)([C@H]2CC[C@]3(C)[C@@H]2[C@H](O)C[C@@H]2[C@@]4(C)CC[C@H](O)C(C)(C)[C@@H]4CC[C@]23C)O1	inactive	70.6%	72.6%	74.8%	79.1%	81.2%	–	–	–	Activity [14]: 123%
C=CCSSCCC(=O)O[C@H]1CC[C@]2(C)[C@H]3C[C@@H](O)[C@@H]4[C@@H]([C@@](C)(O)CCC=C(C)C)CC[C@@]4(C)[C@]3(C)C[C@H](O)[C@H]2C1(C)C	inactive	49%	58.4%	64.4%	63.1%	65.7%	–	–	–	–
CC(C)(O)[C@H]1CC[C@@](C)([C@H]2CC[C@]3(C)[C@@H]2[C@H](O)C[C@@H]2[C@@]4(C)CC[C@H](OC(=O)CCC(=O)Oc5ccc(-c6nc(=O)ss6)cc5)C(C)(C)[C@@H]4CC[C@]23C)O1	inactive	76.4%	82%	84.7%	86.8%	91.4%	Active	7 µM	Dose-dependent-effect	–
CC(C)(O)[C@@H]1CC[C@@](C)([C@H]2CC[C@]3(C)[C@@H]2[C@H](O)C[C@@H]2[C@@]4(C)CC[C@H](OC(=O)CCC(=O)Oc5ccc(-c6cc(=S)ss6)cc5)C(C)(C)[C@@H]4[C@@H](O)C[C@]23C)O1	inactive	68.4%	73.6%	76.9%	77.2%	75.2%	–	–	–	–
CC(C)=CCC[C@](C)(O)[C@H]1CC[C@]2(C)[C@@H]1[C@H](O)C[C@@H]1[C@@]3(C)CC[C@H](OC(=O)c4ccc(N=C=S)cc4)C(C)(C)[C@@H]3[C@@H](O)C[C@]12C	inactive	50.9%	55.2%	54%	56.6%	54.8%	–	–	–	–
O=C(O)CCC(=O)Oc1ccc(-c2nc(=O)ss2)cc1	inactive	52.4%	55.1%	55.9%	57%	57.2%	–	–	–	–
